The results in this text go back to PubChem BioAssay AID2060485 (Molecular Pharmacology Branch, DTP, NCI, 2025).

Several values for one entry are separate records, joined by “and”; a condition that tells them apart may be missing. Identical values can stand only once.

This test has as its system A375 multi-cell spheroids with HUVEC/MSC, viability. Description: Anticancer human tumor A375 cell line growth inhibition [GQUAD].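 For all read-outs here: spheroids exposed to compounds for seven days before readout.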 To be noted: for viability, T/C: stronger effect = lower value. From the text: DNA G-quadruplex Stabilizer Agents in Combinations in Complex Spheroids
A high-throughput screen of multi-cell type tumor spheroids was designed to identify active combinations of DNA G-quadruplex stabilizer agents and targeted small molecules. Complex spheroids include a stromal component modeled by human endothelial cells (HUVEC) and fibroblasts modeled by human mesenchymal stem cells (MSCs). The concentration ranges selected for each drug and investigational agent were based upon clinically achievable concentrations if the clinical Cmax of the agent was known.
Compounds. The drugs and investigational agents: pidnarulex (CX-5461; NSC782164), APTO-253 (NSC789042), BRACO-19 (NSC847499), peposertib (NSC802822), ceralasertib (NSC780249), elimusertib (NSC800525), camonsertib (NSC841442), AZD-1390 (NSC803789), olaparib (NSC753686), talazoparib (NSC767125), ART-558 (NSC835418), sotorasib (NSC818433), MRTX-1133 (NSC836407), SN-38 (NSC673596), topotecan (NSC609699), etoposide (NSC141540), doxorubicin (NSC123127), gemcitabine (NSC613327), 5-fluorouracil (NSC19893), paclitaxel (NSC125973), vemurafenib (NSC761431), panobinostat (NSC761190), R-306465 (JNJ-16241199; NSC773264), adavosertib (NSC754352), TP-3654 (NSC805149), carboplatin (NSC241240), KSQ-4279 (NSC840948), and staurosporine (NSC755774) were obtained from the National Cancer Institute (NCI) Developmental Therapeutics Program Chemical Repository (34). The FDA-approved anticancer drug set is available from the NCI Developmental Therapeutics Program. […] The stock solutions were prepared in dimethyl sulfoxide (DMSO, Sigma-Aldrich, St. Louis, MO, cat. D2650) at 800-fold the tested concentration and stored at -70 degrees C prior to their use. All drugs and investigational agents were tested over a range starting from a high concentration at or near the clinical Cmax and decreasing in half-log increments. If the clinical Cmax for an agent had not been determined, the highest concentration tested was 10 microM.
2.3 Cell Culture. All cells were maintained in an incubator at 37 degrees C and 5% CO2 with 95% humidity. The PDC lines were cultured according to standard operating procedures established by the NCI PDMR. All PDCs were thawed and cultured in Matrigel-coated flasks prepared with a working solution of 1X Ham's F-12 nutrient mix, without supplementation (Invitrogen, cat. 11765054), 100 U/mL penicillin-streptomycin (Invitrogen, cat. 15140122), and 2.5% Matrigel (Corning Inc., cat. 354248) for the first three passages. The 857933-349-R-J2-PDC line was cultured in 6C/Colon 1B media, which includes advanced DMEM/F-12 (Thermo Fisher Scientific, cat. 12634028), 10 mM HEPES (Thermo Fisher Scientific, cat. 15630080), 1X GlutaMAX supplement (Thermo Fisher Scientific, cat. 35050061), 0.1 mg/mL primocin (InvivoGen, cat. ant-pm-2), 10% defined fetal bovine serum, heat inactivated (HyClone Laboratories Inc., cat. SH30070.03HI), 50% L-WRN conditioned media (ATCC, cat. CRL-3276), 1.25 mM N-Acetyl-L-cysteine (Sigma-Aldrich, cat. A9165), 10 mM nicotinamide (Sigma-Aldrich, cat. N0636), 1X B-27 supplement (Thermo Fisher Scientific, cat. 17504044), 1X N-2 supplement (Thermo Fisher Scientific, cat. 17502048), 10 microM Y-27632 dihydrochloride (Tocris Bioscience, cat. 1254), and 50 ng/mL human EGF recombinant protein (Thermo Fisher Scientific, cat. PHG0311). The 485176-168-R4-J1-PDC line was cultured in Panc media, which includes all 6C/Colon 1B media components plus 100 ng/mL human FGF-10 (Thermo Fisher Scientific, cat. 100-26), 500 nM SB-431542 (Selleckchem, cat. S1067), and gastrin (Tocris, cat. 3006).
[…]

[1] abbreviates: curve of first compound, second compound 0.0316 µM.
Setting [2] is: curve of first compound, second compound 0.1 µM.
[3] abbreviates: curve of first compound, second compound 0.316 µM.
[4] abbreviates: curve of first compound, second compound 1 µM.
The mark [5] stands for this setting: curve of first compound, second compound 3.16 µM.
The mark [6] stands for this setting: curve of first compound, second compound 10 µM.
The mark [7] stands for this setting: second compound 0.0316 µM, first compound 0.0316 µM.
Setting [8] is: second compound 0.0316 µM, first compound 0.1 µM.
The mark [9] stands for this setting: second compound 0.0316 µM, first compound 0.316 µM.
[10] abbreviates: second compound 0.0316 µM, first compound 1 µM.
[11] abbreviates: second compound 0.0316 µM, first compound 3.16 µM.
[12] abbreviates: second compound 0.0316 µM, first compound 10 µM.
The mark [13] stands for this setting: second compound 0.1 µM, first compound 0.0316 µM.
Setting [14] is: second compound 0.1 µM, first compound 0.1 µM.
[15] abbreviates: second compound 0.1 µM, first compound 0.316 µM.
Where [16] appears, read: second compound 0.1 µM, first compound 1 µM.
The mark [17] stands for this setting: second compound 0.1 µM, first compound 3.16 µM.
[18] abbreviates: second compound 0.1 µM, first compound 10 µM.
Where [19] appears, read: second compound 0.316 µM, first compound 0.0316 µM.
Where [20] appears, read: second compound 0.316 µM, first compound 0.1 µM.
The mark [21] stands for this setting: second compound 0.316 µM, first compound 0.316 µM.
Where [22] appears, read: second compound 0.316 µM, first compound 1 µM.
The mark [23] stands for this setting: second compound 0.316 µM, first compound 3.16 µM.
[24] abbreviates: second compound 0.316 µM, first compound 10 µM.
[25] abbreviates: second compound 1 µM, first compound 0.0316 µM.
Setting [26] is: second compound 1 µM, first compound 0.1 µM.
Where [27] appears, read: second compound 1 µM, first compound 0.316 µM.
[28] abbreviates: second compound 1 µM, first compound 1 µM.
Setting [29] is: second compound 1 µM, first compound 3.16 µM.
[30] abbreviates: second compound 1 µM, first compound 10 µM.
Where [31] appears, read: second compound 3.16 µM, first compound 0.0316 µM.
The mark [32] stands for this setting: second compound 3.16 µM, first compound 0.1 µM.
Setting [33] is: second compound 3.16 µM, first compound 0.316 µM.
[34] abbreviates: second compound 3.16 µM, first compound 1 µM.
Where [35] appears, read: second compound 3.16 µM, first compound 3.16 µM.
Where [36] appears, read: second compound 3.16 µM, first compound 10 µM.
The mark [37] stands for this setting: second compound 10 µM, first compound 0.0316 µM.
Where [38] appears, read: second compound 10 µM, first compound 0.1 µM.
The mark [39] stands for this setting: second compound 10 µM, first compound 0.316 µM.
Where [40] appears, read: second compound 10 µM, first compound 1 µM.
Setting [41] is: second compound 10 µM, first compound 3.16 µM.
Where [42] appears, read: second compound 10 µM, first compound 10 µM.

On to `COc1cccc2c1C(=O)c1c(O)c3c(c(O)c1C2=O)CC(O)(C(=O)CO)CC3OC1CC(N)C(O)C(C)O1` (configuration not stated) + Cc1cnc(CNC(=O)c2c(=O)c3ccc(N4CCCN(C)CC4)nc3n3c2sc2ccccc23)cn1, for which the IC50 (as a rule, the concentration that inhibits the measured activity by half) by setting is: under setting [1], 168 nM; under setting [2], 56.2 nM; under setting [3], below 31.6 nM; under setting [4], below 31.6 nM; under setting [5], below 31.6 nM; under setting [6], below 31.6 nM. Further, the viability, T/C (in general, the result in the treated group divided by that in the control group, in per cent) is 109% under setting [7]; 64.1% under setting [8]; 31.2% under setting [9]; 20.5% under setting [10]; 1.64% under setting [11]; 0.08% under setting [12]. For the same compound, the viability, T/C was 59.3% under setting [13]; 38.7% under setting [14]; 30.2% under setting [15]; 17.9% under setting [16]; 1% under setting [17]; 0.06% under setting [18]. The viability, T/C under setting [19] is 41.5%; the viability, T/C under setting [20] was 33.4%; the viability, T/C under setting [21] was 27.4%; the viability, T/C under setting [22] is 16.1%; the viability, T/C under setting [23] was 0.21%; the viability, T/C under setting [24] is 0.08%. The viability, T/C is, setting by setting: under setting [25], 37.1%; under setting [26], 30.9%; under setting [27], 27.4%; under setting [28], 15.2%; under setting [29], 0.07%; under setting [30], 0.09%. Also, the viability, T/C under setting [31] is 33%; the viability, T/C under setting [32] is 31.4%; the viability, T/C under setting [33] is 24.5%; the viability, T/C under setting [34] is 14.9%; the viability, T/C under setting [35] was 0.12%; the viability, T/C under setting [36] was 0.13%. For the same compound, the viability, T/C is 25.6% under setting [37]; 24.9% under setting [38]; 20.4% under setting [39]; 13.7% under setting [40]; 0.21% under setting [41]; 0.22% under setting [42].
Take `COc1ncnc(C2CC2)c1-c1ncc2cnn(Cc3ccc(-c4nc(C(F)(F)F)cn4C(C)C)cc3)c2n1`: the viability, T/C was 94% and 97.5% and 102% (compound 0.0316 µM); 93.6% and 99.8% and 99.5% (compound 0.1 µM); 93.8% and 100% and 99.5% (compound 0.316 µM); 104% and 98.2% and 103% (compound 1 µM); 109% and 103% and 105% (compound 3.16 µM); 106% and 108% and 99.5% (compound 10 µM). The 50% inhibitory concentration (IC50) (curve of compound) is above 10000 nM.
Turning to `CC1COCCN1c1cc(C2(S(C)(=N)=O)CC2)nc(-c2ccnc3[nH]ccc23)n1` (configuration not stated), the viability, T/C (compound 0.0316 µM) was 103% and 102%; the viability, T/C (compound 0.1 µM) is 97.6% and 102%; the viability, T/C (compound 0.316 µM) was 104% and 98.5%; the viability, T/C (compound 1 µM) is 109% and 103%; the viability, T/C (compound 3.16 µM) was 54.7% and 63.4%; the viability, T/C (compound 10 µM) was 42.4% and 36.1%. For the same compound, the half-maximal inhibitory concentration (IC50) (curve of compound) is 4900 nM and 5560 nM.
`CC(=O)O[C@H]1C(=O)[C@@]2(C)[C@H]([C@H](OC(=O)c3ccccc3)[C@]3(O)C[C@H](OC(=O)[C@H](O)[C@@H](NC(=O)c4ccccc4)c4ccccc4)C(C)=C1C3(C)C)[C@]1(OC(C)=O)CO[C@@H]1C[C@@H]2O`: the viability, T/C reads like this: (compound 0.0316 µM) 68.9% and 90.7% and 112%; (compound 0.1 µM) 18.1% and 20.5% and 32.6%; (compound 0.316 µM) 9.64% and 11.9% and 16.6%; (compound 1 µM) 9.68% and 8.91% and 13.8%; (compound 3.16 µM) 7.88% and 12.2% and 13.3%; (compound 10 µM) 10.8% and 15.2% and 17.8%. In addition, the half-inhibitory concentration (IC50) (curve of compound) is 48.5 nM and 61.6 nM and 77.6 nM.
With `Cc1cccc(N(C)C(=O)C2C(O)CCN2c2nc(C)cc(C(F)(F)F)c2C#N)c1` (configuration not stated), the viability, T/C (compound 0.0316 µM) was 110% and 103% and 101%; the viability, T/C (compound 0.1 µM) was 94.9% and 106% and 101%; the viability, T/C (compound 0.316 µM) was 97.7% and 98.8% and 106%; the viability, T/C (compound 1 µM) was 97.1% and 104% and 90.2%; the viability, T/C (compound 3.16 µM) was 96.7% and 109% and 108%; the viability, T/C (compound 10 µM) was 97.8% and 103% and 95%. In addition, the concentration for half-maximal inhibition (IC50) (curve of compound) was above 10000 nM.
In the case of `C#Cc1c(F)ccc2cc(O)cc(-c3ncc4c(N5CC6CCC(C5)N6)nc(OCC56CCCN5CC(F)C6)nc4c3F)c12` (configuration not stated) + Cc1cnc(CNC(=O)c2c(=O)c3ccc(N4CCCN(C)CC4)nc3n3c2sc2ccccc23)cn1, the 50% inhibitory concentration (IC50) was above 10000 nM under setting [1]; above 10000 nM under setting [2]; above 10000 nM under setting [3]; below 31.6 nM under setting [4]; below 31.6 nM under setting [5]; below 31.6 nM under setting [6]. Moreover, the viability, T/C reads like this: under setting [7], 106%; under setting [8], 109%; under setting [9], 121%; under setting [10], 120%; under setting [11], 117%; under setting [12], 117%. Moreover, the viability, T/C under setting [13] was 79%; the viability, T/C under setting [14] is 74.6%; the viability, T/C under setting [15] is 93.8%; the viability, T/C under setting [16] is 85.1%; the viability, T/C under setting [17] is 88.3%; the viability, T/C under setting [18] was 96%. Moreover, the viability, T/C runs as follows: under setting [19], 59.1%; under setting [20], 51.8%; under setting [21], 64.3%; under setting [22], 55.1%; under setting [23], 58.6%; under setting [24], 47.9%. Besides, the viability, T/C is, setting by setting: under setting [25], 42.6%; under setting [26], 42.6%; under setting [27], 39.4%; under setting [28], 40%; under setting [29], 37.4%; under setting [30], 38.8%. Moreover, the viability, T/C under setting [31] was 40.6%; the viability, T/C under setting [32] was 36.9%; the viability, T/C under setting [33] is 36.6%; the viability, T/C under setting [34] is 34.7%; the viability, T/C under setting [35] was 36.3%; the viability, T/C under setting [36] is 33.7%. The viability, T/C by setting is: under setting [37], 25.7%; under setting [38], 28.3%; under setting [39], 33.2%; under setting [40], 34%; under setting [41], 33.2%; under setting [42], 32.3%.
